Like-named read-outs stand apart in the source and are kept apart here.
Tests used:
[1] = tested on: stomach mucosa; assay: Degree of gastric trouble (visible observation of stomach mucosa); assay type: in vivo, rat (Wistar strain); conditions: for Degree of gastric trouble: 100 mg/kg p.o., sum of scores (0-3) of 4 rats; for degree of gastric trouble in words: 100 mg/Kg p.o.
From the text: 2. Degree of gastric trouble
The rats used in above test of anti-edematic effects were slaughtered, and their stomaches were visibly observed in accordance with the under-mentioned bases. Measurement values were decided by summing up the respective data of 4 tests of each group.
Visible observation of the stomach mucosa
No abnormality is recognized
Slight edema, congestion or slight erosion
Scattered or limitted erosion and spotted
Heavy erosion, linear bleeding or enlarged

[2] = tested on: Carrageenin edema of the hind paw of the rat; assay: Anti-edematic effect, Carrageenin paw edema method, oral, in rats; assay type: in vivo, rat (Wistar strain); conditions: for Anti-edematic ratio (%) / Comparison with Control Compound (anti-edematic ratio): 100 mg/kg p.o.; for Anti-edematic ratio (%): rats, 3 hours after Carrageenin; for Comparison with Control Compound (anti-edematic ratio): Control compound (Aspirin) = 100; for anti-edematic / anti-inflammatory effect in words: 100 mg/Kg p.o.
Description: Test animal: For the respective compounds, four male rats of the Wistar strain weighing approximately 150g were used. The test animals were made to fast for approximately 16 hours.
The anti-edematic test is carried out by determining the increase of edema due to the injection of […], in accordance with the paw edema method. [see Winter. C. A. et al; Proc. Soc. exp.
The test compounds were respectively suspended in five percent of aqueous solution of gum Arabic, and the suspensions were orally administered to the rats one hour before the injection of the Carrageenin. Activities were determined by measuring the volume of the hind paw of the rat three hours after the administration of the Carrageenin.

[3] = tested on: acetic acid Writhing syndrome; assay: Anti-acetic acid Writhing test, oral, in mice; assay type: in vivo, mouse (dd strain); conditions: for ED50: Mus musculus, po, read-out: ED50 (anti-acetic acid Writhing)
Description: Comparative tests for anti-acetic acid Writhing activity in mice were made to the Compound A of the present invention and 4-amino-pyrimidine-N^1 -phenacylbromide (hereinafter referred to as Compound C), using Aspirin as a control compound. The test compounds were respectively suspended in an of aqueous solution of containing five percent of gum Arabic. Eight male mice of dd strain weighing approximately 20 - 23g were used as the test animals. The mice were made to fast for about 19 hours.
After 50 minutes or 170 minutes of administration of the test compounds, 0.1 ml of 0.7% acetic acid solution per 10 g. of the body weight of the test animal was injected intraperitoneally. Regarding the expansion of the hind paw of the mice induced during 15 minutes after the injection, a number of Writhing syndromes were encountered and recorded. Effects of the respective test compounds against the usual behavior of the mice were also observed. In the above test, 5% gum arabic solution per se was administered to the control animal.
Various doses of the respective compounds were orally administered to eight mice. After 1 or 3 hours of the administration, a anti-acetic acid Writhing test was carried out.

[4] = pH of the test compound; assay type: physicochemical; conditions: footnote of Table 5
[5] = tested on: gastric secretion; assay: Effect on gastric secretion in 4hr. pylorus-ligated rats (intraduodenal); assay type: in vivo, rat (Wistar strain)
Description: (§1) Using rats of Wistar strain as test animals weighing about 150 - 160 g., the anti-ulcer activities were measured in accordance with the conventional manner with respect to the following four (4) items.
ii. Effect on gastric secretion in 4hr. pylorus-ligated rats. (Intraduodenal administration)

[6] = tested on: Stress Ulcer (Immersion); assay: Stress Ulcer (Immersion) at 23-25° C. for 20 hrs; assay type: in vivo, rat (Wistar strain); conditions: for effect on stress ulcer in words: 300 mg/Kg (p.o.)
Description: as §1
i. Stress Ulcer (Immersion) at 23° - 25° C. for 20 hrs.

[7] = tested on: Shay Ulcer; assay: Effect on Shay Ulcer in rats (17hr. pylorus-ligated rats); assay type: in vivo, rat (Wistar strain); conditions: for Inhibitory % (ulcer index) / Ulcer Index (mm): 300 (mg/μg [sic]); for Inhibitory % (ulcer index) / Ulcer Index (mm) / Inhibitory % (titrable acidity) / Inhibitory % (volume) / Titrable Acidity to pH 7.0 / Vol(ml) 100g B.W.: 17hr pylorus-ligated; for Ulcer Index (mm): Compound A n=2, individual values (0),(84), Compound C n=6, * P<0.05; for Inhibitory % (titrable acidity) / Inhibitory % (volume) / Titrable Acidity to pH 7.0 / Vol(ml) 100g B.W.: dose not given in Table 7; for Vol(ml) 100g B.W.: Compound A n=2, individual values (1.11),(3.29); for inhibitory effect against the appearance of ulcer in words: Tables 6 and 7
Description: as §1
iii. Effect on Shay Ulcer in rats. (Method by 17hr. pylorusligated rats)

[8] = tested on: gastric secretion stimulated by carbachol; assay: Effect on gastric secretion stimulated by carbachol in acute gastric fistula rats; assay type: in vivo, rat (Wistar strain); conditions: FIG. 1
Description: as §1
iv. Effect on gastric secretion in acute gastric fistula rats.
Comparative tests were carried out to measure the effects on gastric secretion stimulated by carbachol and the effects of Compounds A and C on eight rats of Wistar strain. The results are graphically shown in the accompanying FIG. 1.

[9] = 150 (mg/μg [sic]) intraduodenal
[10] = 300 (mg/μg [sic]) intraduodenal
[11] = 150 mg/Kg p.o., * P<0.05 for Compound C
[12] = 300 mg/Kg p.o., ** P<0.01 for Compound A, * P<0.05 for Compound C
[13] = 3hr, 160 mg/Kg p.o., ** P<0.01 for Compound C

CC(=O)Oc1ccccc1C(=O)O [Aspirin, reference compound]
Degree of gastric trouble [1]: 12 | Anti-edematic ratio (%) [2]: 35.8% | Comparison with Control Compound (anti-edematic ratio) [2]: 100 | ED50 ([3]; 1 h): 410 mg/kg | ED50 ([3]; 3 h): 253 mg/kg

COc1ccc(C(=O)C[n+]2ccc(N)nc2)cc1 [Compound A, 4-aminopyrimidine N^1-(p-methoxyphenacyl)bromide]
degree of gastric trouble in words [1]: extremely less than that of the Control compound | Degree of gastric trouble [1]: 2 | pH of the test compound [4]: 6.3 | Inhibitory % (titrable acidity) [5, 9]: 92.4% | Inhibitory % (volume) [5, 9]: 73.3% | Titrable acidity to PH 7.0 [5, 9]: 14.4 ± 4.2 μEq/100g B.W. | Vol/100 g B.W.(ml) [5, 9]: 0.5 ± 0.06 ml/100 g B.W. | Inhibitory % (titrable acidity) [5, 10]: 96.4% | Inhibitory % (volume) [5, 10]: 64.4% | Titrable acidity to PH 7.0 [5, 10]: 6.8 ± 3.4 μEq/100g B.W. | Vol/100 g B.W.(ml) [5, 10]: 0.72 ± 0.24 ml/100 g B.W. | anti-edematic / anti-inflammatory effect in words [2]: equal to, or more than that of the Control compound | Anti-edematic ratio (%) [2]: 50.0% | Comparison with Control Compound (anti-edematic ratio) [2]: 140 | Inhibitory % (ulcer index) ([6]; 150 mg/Kg p.o.): 28.1% | Ulcer Index (mm) [6, 11]: 37.1 ± 5.9 mm | effect on stress ulcer in words [6]: effective | Inhibitory % (ulcer index) ([6]; 300 mg/Kg p.o.): 70.3% | Ulcer Index (mm) [6, 12]: 15.3 ± 6.1 mm | No. of Writhing Syndrome (m±S.E.) ([3]; 1hr, 20 mg/Kg p.o.): 41.4 ± 5.6 | % of Protection ([3]; 1hr, 40 mg/Kg p.o.): 18% | No. of Writhing Syndrome (m±S.E.) ([3]; 1hr, 40 mg/Kg p.o.): 33.1 ± 3.7 | % of Protection ([3]; 1hr, 80 mg/Kg p.o.): -15% | No. of Writhing Syndrome (m±S.E.) ([3]; 1hr, 80 mg/Kg p.o.): 46.3 ± 3.6 | No. of Writhing Syndrome (m±S.E.) ([3]; 1hr, 160 mg/Kg p.o.): 29.4 ± 5.1 | % of Protection ([3]; 1hr, 160 mg/Kg p.o., * P<0.05): 27% | No. of Writhing Syndrome (m±S.E.) ([3]; 1hr, 320 mg/Kg p.o.): 17.1 ± 4.6 | % of Protection ([3]; 1hr, 320 mg/Kg p.o., ** P<0.01): 58% | % of Protection ([3]; 3hr, 20 mg/Kg p.o.): -13% | No. of Writhing Syndrome (m±S.E.) ([3]; 3hr, 20 mg/Kg p.o.): 34.6 ± 5.4 | % of Protection ([3]; 3hr, 40 mg/Kg p.o.): 43% | No. of Writhing Syndrome (m±S.E.) ([3]; 3hr, 40 mg/Kg p.o.): 17.6 ± 4.8 | % of Protection ([3]; 3hr, 80 mg/Kg p.o.): 25% | No. of Writhing Syndrome (m±S.E.) ([3]; 3hr, 80 mg/Kg p.o.): 23.1 ± 6.6 | No. of Writhing Syndrome (m±S.E.) ([3]; 3hr, 160 mg/Kg p.o.): 21.8 ± 4.0 | % of Protection [3, 13]: 29% | No. of Writhing Syndrome (m±S.E.) ([3]; 3hr, 320 mg/Kg p.o.): 3.8 ± 2.7 | % of Protection ([3]; 3hr, 320 mg/Kg p.o., ** P<0.01): 88% | Inhibitory % (ulcer index) [7]: 23.4% | Ulcer Index (mm) [7]: 42 mm | Inhibitory % (titrable acidity) [7]: 45.9% | Inhibitory % (volume) [7]: 54.1% | Titrable Acidity to pH 7.0 [7]: 188.2 ± 72.0 μ Eq/100g B.W. | Vol(ml) 100g B.W. [7]: 2.20 ml/100g B.W. | inhibitory effect against the appearance of ulcer in words [7]: outstanding inhibitory effects

Cc1cccc(C(=O)C[n+]2ccc(N)nc2)c1 [Compound B, 4-aminopyrimidine N^1-(m-methylphenacyl)bromide]
degree of gastric trouble in words [1]: extremely less than that of the Control compound | Degree of gastric trouble [1]: 6 | anti-edematic / anti-inflammatory effect in words [2]: equal to, or more than that of the Control compound | Anti-edematic ratio (%) [2]: 35.3% | Comparison with Control Compound (anti-edematic ratio) [2]: 99

Nc1cc[n+](CC(=O)c2ccccc2)cn1 [Compound C, 4-amino-pyrimidine-N^1-phenacylbromide]
pH of the test compound [4]: 5.8 | inhibitory effect to Maximum Response [8]: about 35% | Inhibitory % (titrable acidity) [5, 9]: 69.7% | Inhibitory % (volume) [5, 9]: 53.5% | Titrable acidity to PH 7.0 [5, 9]: 57.0 ± 22.4 μEq/100g B.W. | Vol/100 g B.W.(ml) [5, 9]: 0.94 ± 0.20 ml/100 g B.W. | Inhibitory % (titrable acidity) [5, 10]: 88.2% | Inhibitory % (volume) [5, 10]: 69.3% | Titrable acidity to PH 7.0 [5, 10]: 22.2 ± 7.6 μEq/100g B.W. | Vol/100 g B.W.(ml) [5, 10]: 0.62 ± 0.08 ml/100 g B.W. | Inhibitory % (ulcer index) ([6]; 150 mg/Kg p.o.): 23.4% | Ulcer Index (mm) [6, 11]: 53.1 ± 5.8 mm | effect on stress ulcer in words [6]: effective | Inhibitory % (ulcer index) ([6]; 300 mg/Kg p.o.): 66.2% | Ulcer Index (mm) [6, 12]: 23 ± 6.3 mm | % of Protection ([3]; 1hr, 20 mg/Kg p.o.): 8% | No. of Writhing Syndrome (m±S.E.) ([3]; 1hr, 20 mg/Kg p.o.): 36.9 ± 3.6 | % of Protection ([3]; 1hr, 40 mg/Kg p.o.): 13% | No. of Writhing Syndrome (m±S.E.) ([3]; 1hr, 40 mg/Kg p.o.): 34.9 ± 7.3 | % of Protection ([3]; 1hr, 80 mg/Kg p.o.): -12% | No. of Writhing Syndrome (m±S.E.) ([3]; 1hr, 80 mg/Kg p.o.): 45.3 ± 1.7 | No. of Writhing Syndrome (m±S.E.) ([3]; 1hr, 160 mg/Kg p.o.): 29.9 ± 5.1 | % of Protection ([3]; 1hr, 160 mg/Kg p.o., * P<0.05): 26% | No. of Writhing Syndrome (m±S.E.) ([3]; 1hr, 320 mg/Kg p.o.): 15.9 ± 5.5 | % of Protection ([3]; 1hr, 320 mg/Kg p.o., ** P<0.01): 61% | % of Protection ([3]; 3hr, 20 mg/Kg p.o.): -35% | No. of Writhing Syndrome (m±S.E.) ([3]; 3hr, 20 mg/Kg p.o.): 41.4 ± 5.0 | % of Protection ([3]; 3hr, 40 mg/Kg p.o.): 27% | No. of Writhing Syndrome (m±S.E.) ([3]; 3hr, 40 mg/Kg p.o.): 22.3 ± 5.3 | % of Protection ([3]; 3hr, 80 mg/Kg p.o.): -19% | No. of Writhing Syndrome (m±S.E.) ([3]; 3hr, 80 mg/Kg p.o.): 36.4 ± 3.8 | No. of Writhing Syndrome (m±S.E.) ([3]; 3hr, 160 mg/Kg p.o.): 11.0 ± 3.3 | % of Protection [3, 13]: 64% | No. of Writhing Syndrome (m±S.E.) ([3]; 3hr, 320 mg/Kg p.o.): 12.9 ± 4.6 | % of Protection ([3]; 3hr, 320 mg/Kg p.o., ** P<0.01): 58% | Inhibitory % (ulcer index) [7]: 64.8% | Ulcer Index (mm) [7]: 19 ± 7 mm | Inhibitory % (titrable acidity) [7]: -19.3% | Inhibitory % (volume) [7]: 34.5% | Titrable Acidity to pH 7.0 [7]: 414.8 ± 83.0 μ Eq/100g B.W. | Vol(ml) 100g B.W. [7]: 3.14 ± 0.43 ml/100g B.W. | inhibitory effect against the appearance of ulcer in words [7]: outstanding inhibitory effects

CC(C)[N+](C)(CCOC(=O)C1c2ccccc2Oc2ccccc21)C(C)C [Propantheline, reference compound]
Inhibitory % (ulcer index) ([6]; 15 mg/Kg p.o.): 37.0% | Ulcer Index (mm) ([6]; 15 mg/Kg p.o.): 43.8 ± 12.9 mm | Inhibitory % (ulcer index) ([6]; 30 mg/Kg p.o.): 61.4% | Ulcer Index (mm) ([6]; 30 mg/Kg p.o., ** P<0.01): 26.8 ± 7.4 mm
